# Measured values taken from patent US20200239530A1, “COMPOUNDS AND METHODS OF MODULATING PROTEIN DEGRADATION” (Vividion Therapeutics, Inc., priority 2017, published 2020).
# Target: T1, TAP2 Antigen peptide transporter 2 (Homo sapiens, UniProt Q03519)
# T1 construct: Cells were resuspended in cold PBS on ice and sonicated with a probe sonicator to achieve lysis; endogenous in cells
# T1 sequence (Q03519 1-686): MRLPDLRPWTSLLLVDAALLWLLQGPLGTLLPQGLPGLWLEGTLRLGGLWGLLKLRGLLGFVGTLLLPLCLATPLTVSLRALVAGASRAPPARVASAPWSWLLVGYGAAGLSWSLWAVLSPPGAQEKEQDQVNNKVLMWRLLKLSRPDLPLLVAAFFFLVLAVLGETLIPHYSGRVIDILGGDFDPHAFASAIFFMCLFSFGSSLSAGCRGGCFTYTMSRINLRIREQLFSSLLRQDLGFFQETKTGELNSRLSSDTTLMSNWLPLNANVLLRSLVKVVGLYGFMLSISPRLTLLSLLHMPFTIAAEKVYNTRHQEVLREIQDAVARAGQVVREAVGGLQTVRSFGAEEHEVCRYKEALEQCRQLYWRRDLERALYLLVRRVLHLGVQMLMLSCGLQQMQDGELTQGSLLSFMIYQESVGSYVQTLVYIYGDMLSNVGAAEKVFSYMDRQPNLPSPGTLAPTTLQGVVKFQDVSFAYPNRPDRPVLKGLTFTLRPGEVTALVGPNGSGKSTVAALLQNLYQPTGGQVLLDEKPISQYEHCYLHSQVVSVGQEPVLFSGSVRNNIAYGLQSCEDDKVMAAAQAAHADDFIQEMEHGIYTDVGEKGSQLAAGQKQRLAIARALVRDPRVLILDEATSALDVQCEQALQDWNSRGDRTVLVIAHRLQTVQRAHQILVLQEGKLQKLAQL
# T1 sequence (Q03518 1-748 partner): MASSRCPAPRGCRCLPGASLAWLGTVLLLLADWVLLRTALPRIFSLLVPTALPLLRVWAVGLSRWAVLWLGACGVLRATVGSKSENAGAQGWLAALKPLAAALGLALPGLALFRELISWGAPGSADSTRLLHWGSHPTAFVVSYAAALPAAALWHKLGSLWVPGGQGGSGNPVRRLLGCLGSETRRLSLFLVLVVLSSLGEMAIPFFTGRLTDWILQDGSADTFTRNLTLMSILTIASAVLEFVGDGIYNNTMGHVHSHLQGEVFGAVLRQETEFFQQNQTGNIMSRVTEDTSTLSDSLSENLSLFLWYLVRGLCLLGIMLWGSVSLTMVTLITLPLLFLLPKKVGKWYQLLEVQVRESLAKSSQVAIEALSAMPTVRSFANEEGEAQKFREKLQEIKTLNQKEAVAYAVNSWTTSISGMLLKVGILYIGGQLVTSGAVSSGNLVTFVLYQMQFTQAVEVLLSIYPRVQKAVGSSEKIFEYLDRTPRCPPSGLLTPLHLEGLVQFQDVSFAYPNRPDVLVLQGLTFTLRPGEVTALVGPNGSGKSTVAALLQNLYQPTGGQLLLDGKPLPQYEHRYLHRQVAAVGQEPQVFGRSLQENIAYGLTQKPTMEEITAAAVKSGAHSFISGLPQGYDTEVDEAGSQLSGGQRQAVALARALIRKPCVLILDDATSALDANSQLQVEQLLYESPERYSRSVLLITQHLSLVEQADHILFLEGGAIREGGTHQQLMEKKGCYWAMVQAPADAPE
# Assay: Cysteine liganding, probe competition
# Type: binding
# Conditions: for Liganded: TAP2 Res# 641, uniprot Q03519
# Summary of the method: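 Probe competition in native proteome: 5 mg/ml lysate, compound 1 hr 25° C, then desthiobiotin iodoacetamide (10 mM stock) 1 hr 25° C; acetone ppt, urea/DTT reduction, iodoacetamide alkylation, trypsin, streptavidin pull-down.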
SMILES,Liganded,100 ave (uniprot Q03519),500 Max (uniprot Q03519),500 ave (uniprot Q03519),"100 Max (uniprot Q03519, in % (unit assumed))"
COc1ccc2c(c1)CCCN2C(=O)CCl [KB02],YES,,,,
O=C(CCl)Nc1cc(C(F)(F)F)cc(C(F)(F)F)c1 [KBO3],YES,70.57,94.0932,94.0932,71.9622
